Values of other authors, collected in patent US20090320148A1, “OXYLIPINS FROM STEARIDONIC ACID AND GAMMA-LINOLENIC ACID AND METHODS OF MAKING AND USING THE SAME” (MARTEK BIOSCIENCES CORPORATION, priority 2006, published 2009).

What was measured:
cell migration = settings: comparison with the DHA-derived oxylipin

Compound | secretion of the pro-inflammatory cytokine IL-1β (IL-1β) | reduction of IL-1β secretion compared with DHA oxylipin derivative and indomethacin (IL-1β; comparison with DHA oxylipin derivative and indomethacin) | potency for reduction in IL-1β secretion (IL-1β; comparison with the DHA oxylipin) | potency for inhibiting cell migration (cell migration)
10,17-dihydroxy DPAn-6 | significantly reduced | significantly larger than with that produced by either the DHA oxylipin derivative or the general anti-inflammatory agent, indomethacin | more potent than the DHA oxylipin | 
CCCCCC(O)/C=C/C=C\C/C=C\C/C=C\C/C=C\CCC(=O)O (centres unmarked) [17-hydroxy DPAn-6] | significantly reduced |  |  | more potent than the DHA-derived oxylipin
